Drawing on patent US9931327B2, “Derivatives of 1-phenyl-2-pyridinyl alkyl alcohols as phosphodiesterase inhibitors” (Chiesi Farmaceutici S.p.A., priority 2011, dated 2018), this text covers IC50 for 15 molecules.

Structures can show the parent of a compound that is named as a salt.

The subject of this assay is LPS-induced TNF-α release in peripheral blood mononuclear cells (PBMCs). Kind of assay: In vitro determination of PDE4 inhibitory activity in the PBMCs assay (LPS-induced TNF-α release). It is filed as cell-based, human. The following applies: PBMC; human PBMCs, LPS 3 ng/ml, 18 hours, TNF-α by ELISA; read-out: PDE4 inhibition (IC50, 50% inhibition of LPS-induced TNF-α release). Here is the method:
The assay, which is based on the known inhibitory activity exerted by PDE4 inhibitors on the lipopolyshaccarides (LPS)-induced tumour necrosis factor-alpha (TNF-α release in peripheral blood mononuclear cells (PBMCs), was performed according to a method previously described (Hatzelmann A et al., J. Pharmacol. Exp. Ther., 2001; 297:267-279; and Draheim R et al., J. Pharmacol. Exp. Ther., 2004; 308:555-563, which are incorporated herein by reference in their entireties). Cryopreserved human PBMCs, (100 l/well) were incubated in 96-well plates (10^5 cells/well), for 30 minutes, in the presence or absence (50 microl) of the test compounds whose concentrations ranged from 10^−12 M to 10^−6 M or from […] to 10^−7 M. Subsequently, LPS (3 ng/ml) was added.
After 18 hours of incubation at 37° C. in a humidified incubator under an atmosphere of 95% air and 5% CO2, culture medium was collected and TNF-α measured by ELISA. The results of the tested compounds, representatives of the invention, expressed as mean±95% confidence limits of the molar concentration of the test compound producing 50% inhibition of LPS-induced TNF-α release (IC50) are shown in the following Table: […]
(In general: An ELISA detects its analyte on a solid surface through an enzyme-linked reagent.)
As for `N#Cc1ccccc1S(=O)(=O)N1CCS[C@H]1C(=O)O[C@@H](Cc1c(Cl)c[n+]([O-])cc1Cl)c1ccc(OC(F)F)c(OCC2CC2)c1` [Compound 200, 3,5-dichloro-4-((S)-2-((S)-3-(2-cyanophenylsulfonyl)thiazolidine-2-carbonyloxy)-2-(3-(cyclopropylmethoxy)-4-(difluoromethoxy)phenyl)ethyl)pyridine 1-oxide], the IC50 (in general, the concentration that inhibits the measured activity by half) was 0.1 to 1 nM.
On to `O=C(O[C@@H](Cc1c(Cl)c[n+]([O-])cc1Cl)c1ccc(OC(F)F)c(OCC2CC2)c1)C1SCCN1S(=O)(=O)c1ccc(N2CCOCC2)nc1` (stereo partly drawn) [Compound 74, 3,5-dichloro-4-((2S)-2-(3-(cyclopropylmethoxy)-4-(difluoromethoxy)phenyl)-2-(3-(6-morpholinopyridin-3-ylsulfonyl)thiazolidine-2-carbonyloxy)ethyl)pyridine 1-oxide], for which the IC50 was < 0.1 nM.
With `O=C(O[C@@H](Cc1c(Cl)c[n+]([O-])cc1Cl)c1ccc(OC(F)F)c(OCC2CC2)c1)[C@@H]1SCCN1S(=O)(=O)c1cccc(OC(F)(F)F)c1` [Compound 104, 3,5-dichloro-4-((S)-2-(3-(cyclopropylmethoxy)-4-(difluoromethoxy)phenyl)-2-((S)-3-(3-(trifluoromethoxy)phenylsulfonyl)thiazolidine-2-carbonyloxy)ethyl)pyridine 1-oxide] the figure was 0.1 to 1 nM; with `Cn1ccnc1S(=O)(=O)N1CCC[C@H]1C(=O)O[C@@H](Cc1c(Cl)c[n+]([O-])cc1Cl)c1ccc(OC(F)F)c(OCC2CC2)c1` [Compound 155, 3,5-dichloro-4-((S)-2-(3-(cyclopropylmethoxy)-4-(difluoromethoxy)phenyl)-2-((S)-1-(1-methyl-1H-imidazol-2-ylsulfonyl)pyrrolidine-2-carbonyloxy)ethyl)pyridine 1-oxide], < 0.1 nM; with `O=C(O[C@@H](Cc1c(Cl)c[n+]([O-])cc1Cl)c1ccc(OC(F)F)c(OCC2CC2)c1)[C@@H]1SCCN1S(=O)(=O)c1cccnc1` [Compound 88, 3,5-dichloro-4-((S)-2-(3-(cyclopropylmethoxy)-4-(difluoromethoxy)phenyl)-2-((S)-3-(pyridin-3-ylsulfonyl)thiazolidine-2-carbonyloxy)ethyl)pyridine 1-oxide], < 0.1 nM.
With `CN(C)Cc1ccc(C(=O)N2CCSC2C(=O)O[C@@H](Cc2c(Cl)c[n+]([O-])cc2Cl)c2ccc(OC(F)F)c(OCC3CC3)c2)s1` (stereo partly drawn) [Compound 51, 3,5-dichloro-4-((2S)-2-(3-(cyclopropylmethoxy)-4-(difluoromethoxy)phenyl)-2-(3-(5-((dimethylamino)methyl)thiophene-2-carbonyl)thiazolidine-2-carbonyloxy)ethyl)pyridine 1-oxide formate] the figure was 0.1 to 1 nM; with `O=C(OCCN1CCOCC1)c1cccc(S(=O)(=O)N2CCSC2C(=O)O[C@@H](Cc2c(Cl)c[n+]([O-])cc2Cl)c2ccc(OC(F)F)c(OCC3CC3)c2)c1` (single isomer, unassigned) [Compound 133, 3,5-dichloro-4-((S)-2-(3-(cyclopropylmethoxy)-4-(difluoromethoxy)phenyl)-2-((S)-3-(3-((2-morpholinoethoxy)carbonyl)phenylsulfonyl)thiazolidine-2-carbonyloxy)ethyl)pyridine 1-oxide or 3,5-dichloro-4-((S)-2-(3-(cyclopropylmethoxy)-4-(difluoromethoxy)phenyl)-2-((R)-3-(3-((2-morpholinoethoxy)carbonyl)phenylsulfonyl)thiazolidine-2-carbonyloxy)ethyl)pyridine 1-oxide], < 0.1 nM; with `O=C(O[C@@H](Cc1c(Cl)c[n+]([O-])cc1Cl)c1ccc(OC(F)F)c(OCC2CC2)c1)C1SCCN1S(=O)(=O)c1cccc(F)c1` (stereo partly drawn) [Compound 60, 3,5-dichloro-4-((2S)-2-(3-(cyclopropylmethoxy)-4-(difluoromethoxy)phenyl)-2-(3-(3-fluorophenylsulfonyl)thiazolidine-2-carbonyloxy)ethyl)pyridine 1-oxide], 0.1 to 1 nM.
With `CN(C)C(=O)c1cccc(S(=O)(=O)N2CCOC(C(=O)O[C@@H](Cc3c(Cl)c[n+]([O-])cc3Cl)c3ccc(OC(F)F)c(OCC4CC4)c3)C2)c1` (stereo partly drawn) [Compound 78, 3,5-dichloro-4-((2S)-2-(3-(cyclopropylmethoxy)-4-(difluoromethoxy)phenyl)-2-(4-(3-(dimethylcarbamoyl)phenylsulfonyl)morpholine-2-carbonyloxy)ethyl)pyridine 1-oxide] the figure was 0.1 to 1 nM.
Take `Nc1ccc(S(=O)(=O)N2CCC[C@H]2C(=O)O[C@@H](Cc2c(Cl)c[n+]([O-])cc2Cl)c2ccc(OC(F)F)c(OCC3CC3)c2)cc1` [Compound 136, 4-((S)-2-((S)-1-(4-aminophenylsulfonyl)pyrrolidine-2-carbonyloxy)-2-(3-(cyclopropylmethoxy)-4-(difluoromethoxy)phenyl)ethyl)-3,5-dichloropyridine 1-oxide]: the IC50 was in the range of 0.1 to 1 nM.
For `O=C(O[C@@H](Cc1c(Cl)c[n+]([O-])cc1Cl)c1ccc(OC(F)F)c(OCC2CC2)c1)[C@@H]1CCCN1S(=O)(=O)c1ccccc1` [Compound 86, 3,5-dichloro-4-((S)-2-(3-(cyclopropylmethoxy)-4-(difluoromethoxy)phenyl)-2-((S)-1-(phenylsulfonyl)pyrrolidine-2-carbonyloxy)ethyl)pyridine 1-oxide], the IC50 fell in the range of 0.1 to 1 nM.
The figure for `COc1ccc(C(=O)N2CCSC2C(=O)O[C@@H](Cc2c(Cl)c[n+]([O-])cc2Cl)c2ccc(OC(F)F)c(OCC3CC3)c2)cc1S(=O)(=O)N(C)C` (stereo partly drawn) [Compound 32, 3,5-dichloro-4-((2S)-2-(3-(cyclopropylmethoxy)-4-(difluoromethoxy)phenyl)-2-(3-(3-(N,N-dimethylsulfamoyl)-4-methoxybenzoyl)thiazolidine-2-carbonyloxy)ethyl)pyridine 1-oxide] is 0.1 to 1 nM.
The figure for `Cn1ccnc1S(=O)(=O)N1CCS[C@H]1C(=O)O[C@@H](Cc1c(Cl)cncc1Cl)c1ccc(OC(F)F)c(OCC2CC2)c1` [Compound 243, (S)-((S)-1-(3-(cyclopropylmethoxy)-4-(difluoromethoxy)phenyl)-2-(3,5-dichloropyridin-4-yl)ethyl) 3-(1-methyl-1H-imidazol-2-ylsulfonyl)thiazolidine-2-carboxylate] is 0.1 to 1 nM; for `COc1ccc(S(=O)(=O)N2CCCC[C@H]2C(=O)O[C@@H](Cc2c(Cl)c[n+]([O-])cc2Cl)c2ccc(OC(F)F)c(OCC3CC3)c2)cc1C(=O)N(C)C` [Compound 129, 3,5-dichloro-4-((S)-2-(3-(cyclopropylmethoxy)-4-(difluoromethoxy)phenyl)-2-((S)-1-(3-(dimethylcarbamoyl)-4-methoxyphenylsulfonyl)piperidine-2-carbonyloxy)ethyl)pyridine 1-oxide] it is < 0.1 nM; for `O=C(O[C@@H](Cc1c(Cl)c[n+]([O-])cc1Cl)c1ccc(OC(F)F)c(OCC2CC2)c1)[C@@H]1SCCN1C(=O)c1ccccc1` [Compound 186, 4-((S)-2-((S)-3-benzoylthiazolidine-2-carbonyloxy)-2-(3-(cyclopropylmethoxy)-4-(difluoromethoxy)phenyl)ethyl)-3,5-dichloropyridine 1-oxide] it is 0.1 to 1 nM.
